Data from patent publication US5444174A, “16-membered macrolide derivative having sustained antibacterial activity in plasma, synthesis intermediate thereof and process for producing the same” (Meiji Seika Kaisha, Ltd., priority 1992, dated 1995).
In brackets after ≈: the same amount, converted by molar mass. Like-named read-outs stand apart in the source and are kept apart here.

Columns and labels:
[1] = Storage stability of synthesis intermediates; assay type: physicochemical; conditions: room temperature storage
[2] = test system: Sta. aureus MS15009/pMS98; assay: Antibacterial activity (MIC), agar plate dilution method; assay type: cell-based; conditions: Staphylococcus aureus, MS15009/PMS98, 20 h, read-out: Antibacterial activity (MIC)
Procedure: (§1) Antibacterial activities of the compounds of formula (I) are shown in Table 1 in terms of minimum inhibitory concentration (MIC).
(§2) Minimum inhibitory concentration was determined by the agar plate dilution method. Test strains were subjected to seed culture using Sensitivity test broth (STB, Nissui Pharmaceutical) except that the strains belonging to the genus Streptococcus, Branhamella and Haemophilus were cultured on blood agar plate. A 5 μl portion of cell suspension of the test strains having about 10^6 CFU/ml was inoculated into Sensitivity disk agar (SDA, Nissui Pharmaceutical) supplemented with 5% horse blood and incubated at 37° C. for 20 hours. Then, MIC was measured.

S. pneumoniae IP692 = assay: as above; assay type: cell-based; conditions: Streptococcus pneumoniae, 37° C., 20 hours, blood agar seed culture
Procedure: as §1, §2

K. pneumoniae PC1602 = assay: as above; assay type: cell-based; conditions: Klebsiella pneumoniae, 37° C., 20 hours
Procedure: as §1, §2

Sta. aureus M126 = assay: as above; assay type: cell-based; conditions: Staphylococcus aureus, 37° C., 20 hours
Procedure: as §1, §2

Sta. aureus M133 = assay: as above; assay type: cell-based; conditions: Staphylococcus aureus; 37° C., 20 hours; Sta. aureus M133; read-out: Antibacterial activity (MIC)
Procedure: as §1, §2

S. pneumoniae Type 1 = assay: as above; assay type: cell-based; conditions: Streptococcus pneumoniae, TYPE1, 37° C., 20 hours, blood agar seed culture
Procedure: as §1, §2

Ent. faecalis W-73 = assay: as above; assay type: cell-based; conditions: Enterococcus faecalis, W73, 37° C., 20 hours
Procedure: as §1, §2

[3] = test system: Sta. epidermidis ATCC 14990; assay: as above; assay type: cell-based; conditions: Staphylococcus epidermidis, ATCC14990; 37° C., 20 hours; Sta. epidermidis ATCC 14990; read-out: Antibacterial activity (MIC)
Procedure: as §1, §2

B. catarrhalis W-0506 = assay: as above; assay type: cell-based; conditions: Moraxella catarrhalis, read-out: Antibacterial activity (MIC)
Procedure: as §1, §2

Sta. aureus MS15026 = assay: as above; assay type: cell-based; conditions: Staphylococcus aureus, 37° C., 20 hours
Procedure: as §1, §2

B. catarrhalis W-0500 = assay: as above; assay type: cell-based; conditions: Moraxella catarrhalis, W0500; 37° C., 20 hours; blood agar seed culture; B. catarrhalis W-0500; read-out: Antibacterial activity (MIC)
Procedure: as §1, §2

E. coli NIHJ JC-2 = assay: as above; assay type: cell-based; conditions: Escherichia coli, NIHJJC2, 37° C., 20 hours
Procedure: as §1, §2

[4] = test system: Sta. aureus MS15009/pMS99; assay: as above; assay type: cell-based; conditions: Staphylococcus aureus, MS15009/PMS99, 20 h, read-out: Antibacterial activity (MIC)
Procedure: as §1, §2

Sta. aureus 209P JC-1 = assay: as above; assay type: cell-based; conditions: Staphylococcus aureus, 37° C., 20 hours
Procedure: as §1, §2

H. influenza 9334 = assay: as above; assay type: cell-based; conditions: 37° C., 20 hours, blood agar seed culture
Procedure: as §1, §2

M. luteus ATCC 9341 = assay: as above; assay type: cell-based; conditions: Micrococcus luteus, ATCC9341, 37° C., 20 hours
Procedure: as §1, §2

Sta. aureus MS15027 = assay: as above; assay type: cell-based; conditions: Staphylococcus aureus, read-out: Antibacterial activity (MIC)
Procedure: as §1, §2

S. Pyogenes Cook = assay: as above; assay type: cell-based; conditions: Streptococcus pyogenes, 37° C., 20 hours, blood agar seed culture
Procedure: as §1, §2

M. luteus [5] = assay type: in vitro ADME
Procedure: Changes in the antibacterial activities of miokamycin (MOM) and the compound (13) were measured in the following manner.
(§3) Each test compound and 50 μl of a methanol solution (10,000 γ) were added to 950 μl of thawed rat plasma and the resulting mixture was incubated at 37° C. A 20 μl portion of the mixture was sampled after 0, 1, 3, 6 and 24 hours and added to 980 μl of 0.05M phosphate buffer (pH 7.2). A 20 μl portion of the sample solution was used to measure antibacterial activity against M. luteus. Separately, the calibration curve was prepared by using a methanol solution containing each test compound. The starting activity of each compound in the plasma was referred to as 100%.

gram-positive bacteria = assay: Antibacterial activities against gram-positive bacteria (summary of Table 1); assay type: cell-based; conditions: in words
Procedure: as §1, §2

M. luteus [6] = assay type: in vitro ADME; remark: listed apart in the source
Procedure: as §3
Changes in the antibacterial activities of miokamycin and the compound (14) against M. luteus were measured in the same manner as described above except for using fresh rat plasma in place of thawed rat plasma. The fresh rat plasma was prepared by collecting 50 ml of blood from five rats, treating the blood with heparin and subjecting it to centrifugation to obtain plasma.

[7] = cited from earlier work
[8] = human compared with rat; cited from earlier work
[9] = cited from earlier work; remark: listed apart in the source
[10] = vs midecamycin; cited from earlier work
[11] = W0506, 37° C., 20 hours, blood agar seed culture, B. catarrhalis W-0506
[12] = 37° C., 20 hours, Sta. aureus MS15027

Compound | MIC [2] | MIC (S. pneumoniae IP692) | MIC (K. pneumoniae PC1602) | MIC (Sta. aureus M126) | MIC (Sta. aureus M133) | MIC (S. pneumoniae Type 1) | MIC (Ent. faecalis W-73) | MIC [3] | MIC (Sta. aureus MS15026) | MIC (B. catarrhalis W-0500) | MIC (E. coli NIHJ JC-2) | MIC [4] | MIC (Sta. aureus 209P JC-1) | MIC (H. influenza 9334) | MIC (M. luteus ATCC 9341) | MIC (S. Pyogenes Cook) | antibacterial activities against gram-positive bacteria (gram-positive bacteria) | MIC (B. catarrhalis W-0506; [11]) | MIC (Sta. aureus MS15027; [12]) | other results
CCC(=O)O[C@@H]1CC(=O)O[C@H](C)C/C=C/C=C/C(=O)[C@H](C)C[C@H](CC2OCCO2)[C@H](O[C@@H]2O[C@H](C)[C@@H](O)[C@H]([N+](C)(C)[O-])[C@H]2O)[C@H]1OC [Compound (2)] |  |  |  |  |  |  |  |  |  |  |  |  |  |  |  |  |  |  |  | stability [1]: so stable as to be stored at room temperature for a prolonged period of time
CCO[C@H]1[C@H](C)O[C@@H](O[C@H]2[C@H](N(C)C)[C@@H](O)[C@H](O[C@H]3[C@@H](CC=O)C[C@@H](C)C(=O)/C=C/C=C/C[C@@H](C)OC(=O)C[C@@H](OC(=O)CC)[C@@H]3OC)O[C@@H]2C)C[C@@]1(C)OC [Compound (13)] | 6.25 µg/mL (≈ 7.83 µM) | 1.56 µg/mL (≈ 1.95 µM) | > 100 µg/mL | > 100 µg/mL | 3.13 µg/mL (≈ 3.92 µM) | 1.56 µg/mL (≈ 1.95 µM) | 3.13 µg/mL (≈ 3.92 µM) | 12.5 µg/mL (≈ 15.7 µM) | > 100 µg/mL | 3.13 µg/mL (≈ 3.92 µM) | > 100 µg/mL | > 100 µg/mL | 3.13 µg/mL (≈ 3.92 µM) | 100 µg/mL (≈ 125 µM) | 0.78 µg/mL (≈ 0.977 µM) | 0.78 µg/mL (≈ 0.977 µM) | have antibacterial activities against gram-positive bacteria |  |  | MIC (B. catarrhalis W-0506; W0506, 20 h): 6.25 µg/mL (≈ 7.83 µM); MIC (Sta. aureus MS15027; MS15027, 20 h): 6.25 µg/mL (≈ 7.83 µM); antibacterial activity in rat plasma over time (M. luteus [5]): antibacterial activity sustaining for a prolonged period of time in rat plasma; degree of the decrease in the antibacterial activity in plasma (M. luteus [5]): clearly lower degree of the decrease in the antibacterial activity in plasma, compared with miokamycin; metabolism at the mycarose moiety in plasma (M. luteus [5]): hardly metabolized at the mycarose moiety
CCC(=O)O[C@@H]1CC(=O)O[C@H](C)C/C=C/C=C/C(=O)[C@H](C)C[C@H](CC=O)[C@H](O[C@@H]2O[C@H](C)[C@@H](O[C@H]3C[C@@](C)(OC)[C@@H](OCCC(C)C)[C@H](C)O3)[C@H](N(C)C)[C@H]2O)[C@H]1OC [Compound (14)] | 0.78 µg/mL (≈ 0.929 µM) | 0.1 µg/mL (≈ 0.119 µM) | > 100 µg/mL | > 100 µg/mL | 0.78 µg/mL (≈ 0.929 µM) | 0.2 µg/mL (≈ 0.238 µM) | 1.56 µg/mL (≈ 1.86 µM) | 0.78 µg/mL (≈ 0.929 µM) | > 100 µg/mL | 0.78 µg/mL (≈ 0.929 µM) | > 100 µg/mL | > 100 µg/mL | 0.2 µg/mL (≈ 0.238 µM) | 6.25 µg/mL (≈ 7.44 µM) | 0.1 µg/mL (≈ 0.119 µM) | 0.05 µg/mL (≈ 0.0595 µM) | have antibacterial activities against gram-positive bacteria | 0.78 µg/mL (≈ 0.929 µM) | 0.78 µg/mL (≈ 0.929 µM) | antibacterial activities compared with miokamycin (gram-positive bacteria; vs miokamycin): excellent antibacterial activities exceeding that of miokamycin; antibacterial activity in rat plasma over time (M. luteus [6]): antibacterial activity sustaining for a prolonged period of time in rat plasma; degree of the decrease in the antibacterial activity in plasma (M. luteus [6]): clearly lower degree of the decrease in the antibacterial activity in plasma, compared with miokamycin; metabolism at the mycarose moiety in plasma (M. luteus [6]): hardly metabolized at the mycarose moiety
CCC(=O)O[C@@H]1CC(=O)O[C@H](C)C/C=C/C=C/[C@H](OC(C)=O)[C@H](C)C[C@H](CC=O)[C@H](O[C@@H]2O[C@H](C)[C@@H](O[C@H]3C[C@@](C)(OC(C)=O)[C@@H](OC(=O)CC)[C@H](C)O3)[C@H](N(C)C)[C@H]2O)[C@H]1OC [Miokamycin, miokamycin, reference compound] | 0.78 µg/mL (≈ 0.869 µM) | 0.2 µg/mL (≈ 0.223 µM) | > 100 µg/mL | > 100 µg/mL | 0.78 µg/mL (≈ 0.869 µM) | 0.2 µg/mL (≈ 0.223 µM) | 1.56 µg/mL (≈ 1.74 µM) | 0.78 µg/mL (≈ 0.869 µM) | > 100 µg/mL | 1.56 µg/mL (≈ 1.74 µM) | > 100 µg/mL | > 100 µg/mL | 0.2 µg/mL (≈ 0.223 µM) | 6.25 µg/mL (≈ 6.96 µM) | 0.1 µg/mL (≈ 0.111 µM) | 0.1 µg/mL (≈ 0.111 µM) |  | 1.56 µg/mL (≈ 1.74 µM) | 0.78 µg/mL (≈ 0.869 µM) | recovery ratio in urine ([7]; vs midecamycin): superior to midecamycin; dynamics in vivo ([7]; vs natural compounds): superior in the dynamics in vivo to natural compounds; metabolic pattern of the deacylation of the mycarose moiety in human [8]: almost similar to that in rat; antibacterial activity after metabolism in vivo [9]: the antibacterial activity of this antibiotic is reduced; elimination of acyl group at the mycarose moiety in vivo [9]: eliminated in vivo; infection-protective action in vivo [10]: superior to midecamycin
